Laboratory results from PubChem BioAssay AID2060604 (Molecular Pharmacology Branch, DTP, NCI, 2025).
pIC50: −log10 of the molar value. Several values for one entry are separate records, joined by “and”; a condition that tells them apart may be missing. Identical values can stand only once.

Test system: 379773-124-R-J2-PDC complex spheroids, viability % test/control
Assay: Anticancer human tumor 379773-124-R-J2-PDC patient-derived endometrial carcinoma cell line growth inhibition [CLK]
Conditions: for viability, T/C: stronger effect = lower value; for pIC50: curve of compound; for IC50: compound alone
Text: A high-throughput screen of multi-cell type tumor spheroids was designed to identify active combinations of […] and targeted small molecules. Complex spheroids include a stromal component modeled by human endothelial cells (HUVEC) and fibroblasts modeled by human mesenchymal stem cells (MSCs). The concentration ranges selected for each drug and investigational agent were based upon clinically achievable concentrations if the clinical Cmax of the agent was known.
Compounds. The drugs and investigational agents: cirtuvivint (SM08502; NSC835563), CC-671 (NSC850746), vemurafenib (NSC761431), tapotoclax (NSC804041), sotorasib (NSC818433), adagrasib (NSC831453), MRTX-1133 (NSC836407), BAY2416964 (NSC825713), copanlisib (NSC816437), inavolisib (NSC800729), abemaciclib (NSC768073), osimertinib (NSC779217), entinostat (NSC756642), eltanexor (KPT-8602, NSC794443), venetoclax (NSC766270), ceralasertib (NSC777638), bortezomib (NSC756655), olaparib (NSC753686), talazoparib (NSC767125), alisertib (NSC759677), peposertib (NSC802822), gemcitabine (NSC613327), 5-fluorouracil (NSC19893), SN-38 (NSC673596), oxaliplatin (NSC266046), paclitaxel (NSC125973), and doxorubicin (NSC123127), were obtained from the National Cancer Institute (NCI) Developmental Therapeutics Program Chemical Repository. The FDA-approved anticancer drug set is available from the Developmental Therapeutics Program at https://dtp.cancer.gov/organization/dscb/obtaining/available plates.htm. […] The stock solutions were prepared in dimethyl sulfoxide (DMSO, Sigma-Aldrich, St. Louis, MO, cat. D2650), except for the platinum complexes which were prepared in saline (Quality Biological, Gaithersburg, MD, cat. 114-055-101), at 800-fold the tested concentration and stored at -70 degrees C prior to their use. All drugs and investigational agents were tested over a range starting from a high concentration at or near the clinical Cmax and decreasing in half-log increments. If the clinical Cmax for an agent had not been determined, the highest concentration tested was 10 microM.
Cell Culture. All cells were maintained in an incubator at 37 degrees C and 5% CO2 with 95% humidity. The PDC lines were cultured according to standard operating procedures established by the NCI PDMR. Briefly, all PDCs were thawed and cultured in Matrigel-coated flasks prepared with a working solution of 1X Ham's F-12 nutrient mix, without supplementation (Invitrogen, Waltham, MA, cat. 11765054), 100 U/mL penicillin-streptomycin (Invitrogen, cat. 15140122), and 2.5% Matrigel (Corning Inc., Corning, NY, cat. 354248) for the first three passages. The 947758-054-R-J2-PDC line was cultured in 6B/Colon 1A media, which includes advanced DMEM/F-12 (Thermo Fisher Scientific, cat. 12634028), 10 mM HEPES (Thermo Fisher Scientific, cat. 15630080), 1X GlutaMAX supplement (Thermo Fisher Scientific, cat. 35050061), 0.1 mg/mL primocin (InvivoGen, cat. ant-pm-2), 10% defined fetal bovine serum, heat inactivated (HyClone Laboratories Inc., cat. SH30070.03HI), 1.25 mM N-Acetyl-L-cysteine (Sigma-Aldrich, cat. A9165), 10 mM nicotinamide (Sigma-Aldrich, cat. N0636), 1X B-27 supplement (Thermo Fisher Scientific, cat. 17504044), 1X N-2 supplement (Thermo Fisher Scientific, cat. 17502048), and 10 microM Y-27632 dihydrochloride (Tocris Bioscience, cat. 1254). The 876862-298-R-J1-PDC was cultured in 6E media, which includes all 6B/Colon 1A media components plus 50% L-WRN conditioned media (ATCC, cat. CRL-3276), 50 ng/mL recombinant human EGF recombinant protein (hEGF; Thermo Fisher Scientific, cat. PHG0311), 10 ng/mL recombinant human fibroblast growth factor 10 (hGFG-10; PeproTech, cat. 100-26), 1 ng/mL recombinant human fibroblast growth factor 2 (hFGF-2; PeproTech, cat. 100-18B), and 1 µM prostaglandin E2 (PGE2; Tocris, cat. 2296). The 227483-062-R1-J1-PDC line was cultured in Panc media, containing all 6E components except hFGF-2, with the addition of 500 nM SB-431542 (Selleckchem, cat. S1067) and 10 nM gastrin (Tocris, cat. 3006). […]
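Further: compound exposure lasted seven days before the viability readout.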
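Wherever viability, T/C is given: 100% = DMSO vehicle control wells.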

pIC50 | IC50 (run of 09/18/2023) | IC50 (run of 09/19/2023) | SMILES | viability, T/C (compound 0.00316 µM) | viability, T/C (compound 0.01 µM) | viability, T/C (compound 0.0316 µM) | viability, T/C (compound 0.1 µM) | viability, T/C (compound 0.316 µM) | viability, T/C (compound 1 µM) | viability, T/C (compound 3.16 µM) | viability, T/C (compound 10 µM) | viability, T/C (compound 0.000316 µM) | viability, T/C (compound 0.001 µM) | viability, T/C (compound 0.00949 µM) | viability, T/C (compound 0.03 µM) | viability, T/C (compound 0.0949 µM) | viability, T/C (compound 0.3 µM) | viability, T/C (compound 0.949 µM) | viability, T/C (compound 3 µM)
> 8.50 |  |  | CCc1c2c(nc3ccc(O)cc13)-c1cc3c(c(=O)n1C2)COC(=O)[C@]3(O)CC | 24.2% and 20.4% | 8.01% and 6.62% | 5.03% and 4.19% | 2.77% and 1.93% | 0.94% and 0.86% | 0.57% and 0.46% |  |  |  |  |  |  |  |  |  | 
 | 199 nM [middle of 12 runs] |  | CN1CCN(c2cc(C(=O)Nc3cc4cc(-c5cnn(C)c5)ccc4cn3)ccn2)CC1 |  |  | 95.6% [middle of 12 runs] |  | 28.3% [middle of 12 runs] | 0.33% [middle of 10 runs] | 0.29% [middle of 9 runs] | 0.22% [middle of 9 runs] |  |  |  |  |  |  |  | 
 |  | 75.8 nM [middle of 12 runs] | CNC(=O)c1ccc(Nc2nc(OC3CCCC3)c3c(-c4ccc5nc(C)oc5c4)c[nH]c3n2)c(OC)c1 |  |  | 82.9% [middle of 12 runs] | 39.7% [middle of 12 runs] | 39% [middle of 12 runs] | 32.1% [middle of 12 runs] | 35.5% [middle of 12 runs] | 33.9% [middle of 12 runs] |  |  |  |  |  |  |  | 
5.28 |  |  | COC1C=CCC(C)C(C)S(=O)(=O)NC(=O)c2ccc3c(c2)N(CC2CCC21)CC1(CCCc2cc(Cl)ccc21)CO3 (stereo unspecified) |  |  | 96.5% and 98.1% | 91.1% and 82% | 98.4% and 83.7% | 98.3% and 78.7% | 84.1% and 88.6% | 5.48% and 2.76% |  |  |  |  |  |  |  | 
7.10 and 7.23 |  |  | COc1c(OCCCN2CCOCC2)ccc2c3n(c(=NC(=O)c4cnc(N)nc4)nc12)CCN3 | 85.3% and 98.5% | 91.9% and 72.6% | 73.5% and 69.3% | 43.4% and 40.3% | 15.3% and 12.2% | 4.52% and 3.3% |  |  |  |  |  |  |  |  |  | 
7.17 and 7.52 |  |  | Cn1ncnc1[C@H]1c2n[nH]c(=O)c3cc(F)cc(c23)N[C@@H]1c1ccc(F)cc1 | 86.3% and 79.5% | 86.8% and 79.1% | 72.3% and 49% | 38.9% and 26.1% |  |  |  |  | 97.3% and 82.2% | 100% and 79.8% |  |  |  |  |  | 
7.14 and 7.34 |  |  | NC(=O)C(=Cn1cnc(-c2cc(C(F)(F)F)cc(C(F)(F)F)c2)n1)c1cncnc1 |  |  |  |  |  |  |  |  |  |  | 83.8% and 85.3% | 74.8% and 59.7% | 41.1% and 33.7% | 19.5% and 14.4% | 13.9% and 7.66% | 4.42% and 2.99%
5.52 and 5.54 |  |  | Nc1ccccc1NC(=O)c1ccc(CNC(=O)OCc2cccnc2)cc1 |  |  | 108% and 92.4% | 100% and 89.7% | 95.6% and 104% | 102% and 96.7% | 47.8% and 45.6% | 8.85% and 7.74% |  |  |  |  |  |  |  | 
> 7.50 |  |  | Nc1ccn(C2OC(CO)C(O)C2(F)F)c(=O)n1 (stereo unspecified) |  |  | 6.4% and 4.58% | 5.3% and 4.24% | 6.69% and 3.96% | 5.77% and 4.69% | 4.84% and 3.97% | 3.93% and 3.21% |  |  |  |  |  |  |  | 
< 5.00 |  |  | O=C(c1cc(Cc2n[nH]c(=O)c3ccccc23)ccc1F)N1CCN(C(=O)C2CC2)CC1 |  |  | 83.1% and 108% | 89% and 86.6% | 89.2% and 84.2% | 89.5% and 80.5% | 81.5% and 78.6% | 56.1% and 47% |  |  |  |  |  |  |  | 
< 5.00 |  |  | O=c1[nH]cc(F)c(=O)[nH]1 |  |  | 90.7% and 97.5% | 107% and 93.2% | 91.5% and 98.6% | 97.5% and 100% | 70.2% and 81.4% | 50.9% and 73.7% |  |  |  |  |  |  |  | 
